In patent publication US20030206893A1, “Cell proliferating agents” (priority 2002, published 2003):
Counter-ions that a name gives are not always drawn.

How the values were obtained:
[1] = tested on: human skin fibroblast cell line (normal human dermal fibroblasts, neonatal); experiment: Proliferative response of plant growth factors on human skin fibroblast cell line, 96-well assay (Cell Titer 96 Aqueous One, absorbance 490 nm); type: cell-based; details: 28 hours incubation, serum-free DMEM
Method: The proliferative response of plant growth factors on the human skin fibroblast cell line (Clonetics, Walkersville, Md., normal human dermal fibroblasts, neonatal, Catalog No. CC-2509) was determined in a 96-well assay system using serum-free medium as a control.
Stock solution of gibberellic acid (Sigma Chemical Company, St. Louis, Mo.) (0.001 M) was prepared in water and then diluted with serum-free Dulbecco's Modified Eagle's Medium (DMEM, Sigma Chemical Co., St. Louis, Mo.) to 10^−5, (“GA2”) and 10^−6 (“GA1”) M solutions. Cells were seeded into 96 well plates at a concentration of 3×10^3 cells in 100 microliters of DMEM containing 10 percent fetal bovine serum (FBS, Sigma Chemical Co., St. Louis, Mo.). Plates were incubated for 24 hours at 37° C. in a humidified, 5 percent CO2 atmosphere. After incubation, the medium was aspirated and the wells were rinsed twice with 100 microliters of serum-free DMEM. The final rinse was aspirated and 100 microliters of the 10^−5 and 10^−6 M of each solution was added to 10 wells. In addition, 100 microliters of vehicle (serum-free DMEM) was added to 10 wells as control. All wells were incubated for 28 hours at 37° C. in a humidified, 5 percent CO2 atmosphere. After incubation, 20 microliters of Cell Titer 96 Aqueous One Solution Reagent (Promega, Corp., Madison, Wis.) was added to all wells. The plates were swirled gently and placed back in the incubator for 45 minutes and spectrophotometric absorbance was read at 490 nm.
Statistical analysis was done by using one-way ANOVA.
Kinetin (Spectrum Chemical, CA) 1 mg/ml aqueous solution as supplied by the Company was used as a stock solution. Further dilutions were made with serum-free Dulbecco's Modified Eagle's Medium (DMEM, Sigma Chemical Co., St. Louis, Mo.) to 10^−5, (“K2”) and 10^−6 (“K1”) M solutions. Cells were seeded into 96 well plates at a concentration of 3×10^3 cells in 100 microliters of DMEM containing 10 percent fetal bovine serum (FBS, Sigma Chemical Co., St. Louis, Mo.). Plates were incubated for 24 hours at 37° C. in a humidified, 5 percent CO2 atmosphere. After incubation, the medium was aspirated and the wells were rinsed twice with 100 microliters of serum-free DMEM. The final rinse was aspirated and 100 microliters of the 10^−5 and 10^−6 M of each solution was added to 10 wells. In addition, 100 microliters of vehicle (serum-free DMEM) was added to 10 wells as control. All wells were incubated for 28 hours at 37° C. in a humidified, 5 percent CO2 atmosphere. After incubation, 20 microliters of Cell Titer 96 Aqueous One Solution Reagent (Promega, Corp., Madison, Wis.) was added to all wells. The plates were swirled gently and placed back in the incubator for 45 minutes and spectrophotometric absorbance was read at 490 nm. […]

human fibroblasts = details: reported by S. I. Rattan, Biochem Biophys Res. Comm., 201, 665-672, 1994; cited from earlier work
[2] = 10^-5 and 10^-6 M solutions, 3x10^3 cells seeded
[3] = 10^-4, 10^-5 and 10^-6 M solutions, 2x10^3 cells seeded

C=C1C[C@]23C[C@@]1(O)CC[C@H]2[C@@]12C=C[C@H](O)[C@@](C)(C(=O)O1)[C@H]2[C@@H]3C(=O)O [gibberellic acid]
effect on cell proliferation versus serum-free medium control (one-way ANOVA) [1, 2]: good cell proliferating agent

CC/C=C\C[C@H]1C(=O)CC[C@@H]1CC(=O)O [jasmonic acid]
effect on cell proliferation versus serum-free medium control (one-way ANOVA) [1, 3]: strong cell proliferating agent

c1coc(CNc2ncnc3[nH]cnc23)c1 [kinetin]
effect on onset of aging characteristics in human fibroblasts (human fibroblasts): delay the onset of aging characteristics | effect on cell proliferation versus serum-free medium control (one-way ANOVA) [1, 2]: good cell proliferating agent

C/C(=C\CNc1ncnc2[nH]cnc12)CO [zeatin, trans-zeatin HCl]
effect on cell proliferation versus serum-free medium control (one-way ANOVA) [1, 3]: good cell proliferating agent
